Measurements taken from patent US9693556B2, “Herbicidal pyridazinone derivatives” (SYNGENTA LIMITED, priority 2011, dated 2017).

Legend:
Type in all cases: in vivo
Setaria faberi (SETFA) [1] = assay: Post-emergence herbicidal glasshouse test on Setaria faberi; conditions: post-emergence; 1000 g/h; evaluated after 13 days
Summary of the method: (§1)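 Plants sprayed 1 day (pre-emergence) or 8 days (post-emergence) after sowing with compound at 1000 g/h in acetone/water 50:50 with 0.5% Tween 20; glasshouse 24/16° C, 14 h light, 65% humidity. Damage assessed after 13 days, scored 1–5 (5 = 80-100%, 1 = 0-19%).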

[2] = test system: Alopecurus myosuroides (ALOMY); assay: Post-emergence herbicidal glasshouse test on Alopecurus myosuroides; conditions: post-emergence; 1000 g/h; evaluated after 13 days
Summary of the method: as §1

[3] = test system: Ipomoea hederacea (IPOHE); assay: Pre-emergence herbicidal glasshouse test on Ipomoea hederacea; conditions: pre-emergence; 1000 g/h; evaluated after 13 days
Summary of the method: as §1

[4] = test system: Echinochloa crus-galli (ECHCG); assay: Post-emergence herbicidal glasshouse test on Echinochloa crus-galli; conditions: post-emergence; 1000 g/h; evaluated after 13 days
Summary of the method: as §1

Setaria faberi (SETFA) [5] = assay: Pre-emergence herbicidal glasshouse test on Setaria faberi; conditions: pre-emergence; 1000 g/h; evaluated after 13 days
Summary of the method: as §1

[6] = test system: Echinochloa crus-galli (ECHCG); assay: Pre-emergence herbicidal glasshouse test on Echinochloa crus-galli; conditions: pre-emergence; 1000 g/h; evaluated after 13 days
Summary of the method: as §1

[7] = test system: Amaranthus retoflexus (AMARE); assay: Post-emergence herbicidal glasshouse test on Amaranthus retoflexus; conditions: post-emergence; 1000 g/h; evaluated after 13 days
Summary of the method: as §1

[8] = test system: Amaranthus retoflexus (AMARE); assay: Pre-emergence herbicidal glasshouse test on Amaranthus retoflexus; conditions: pre-emergence; 1000 g/h; evaluated after 13 days
Summary of the method: as §1

[9] = test system: Alopecurus myosuroides (ALOMY); assay: Pre-emergence herbicidal glasshouse test on Alopecurus myosuroides; conditions: pre-emergence; 1000 g/h; evaluated after 13 days
Summary of the method: as §1

Solanum nigrum (SOLNI) [10] = assay: Post-emergence herbicidal glasshouse test on Solanum nigrum; conditions: post-emergence; 1000 g/h; evaluated after 13 days
Summary of the method: as §1

[11] = test system: Ipomoea hederacea (IPOHE); assay: Post-emergence herbicidal glasshouse test on Ipomoea hederacea; conditions: post-emergence; 1000 g/h; evaluated after 13 days
Summary of the method: as §1

Solanum nigrum (SOLNI) [12] = assay: Pre-emergence herbicidal glasshouse test on Solanum nigrum; conditions: pre-emergence; 1000 g/h; evaluated after 13 days
Summary of the method: as §1

Row | Compound | POST Application SETFA herbicidal damage (five point scale) (Setaria faberi (SETFA) [1]) | POST Application ALOMY herbicidal damage (five point scale) [2] | PRE Application IPOHE herbicidal damage (five point scale) [3] | POST Application ECHCG herbicidal damage (five point scale) [4] | PRE Application SETFA herbicidal damage (five point scale) (Setaria faberi (SETFA) [5]) | PRE Application ECHCG herbicidal damage (five point scale) [6] | POST Application AMARE herbicidal damage (five point scale) [7] | PRE Application AMARE herbicidal damage (five point scale) [8] | PRE Application ALOMY herbicidal damage (five point scale) [9] | POST Application SOLNI herbicidal damage (five point scale) (Solanum nigrum (SOLNI) [10]) | POST Application IPOHE herbicidal damage (five point scale) [11] | PRE Application SOLNI herbicidal damage (five point scale) (Solanum nigrum (SOLNI) [12])
1 | Cn1ncc(-c2ccc(S(C)(=O)=O)cc2S(C)(=O)=O)c(O)c1=O [Compound 1.119] | 5 (5=80-100% damage) | 5 (5=80-100% damage) | 5 (5=80-100% damage) | 5 (5=80-100% damage) | 5 (5=80-100% damage) | 5 (5=80-100% damage) | 5 (5=80-100% damage) | 5 (5=80-100% damage) | 5 (5=80-100% damage) | 5 (5=80-100% damage) | 5 (5=80-100% damage) | 5 (5=80-100% damage)
2 | Cn1ncc(-c2cccn(CC3CC3)c2=O)c(O)c1=O [Compound 9.006] | 2 (2=20-39% damage) | 2 (2=20-39% damage) | 1 (1=0-19% damage) | 1 (1=0-19% damage) | 1 (1=0-19% damage) | 1 (1=0-19% damage) | 3 (3=40-59% damage) | 1 (1=0-19% damage) | 1 (1=0-19% damage) | 3 (3=40-59% damage) | 2 (2=20-39% damage) | 1 (1=0-19% damage)
3 | Cn1ncc(-n2ccc(C(F)(F)F)c(-c3ccccc3)c2=O)c(O)c1=O [Compound 1.054] | 5 (5=80-100% damage) | 5 (5=80-100% damage) | 3 (3=40-59% damage) | 5 (5=80-100% damage) | 5 (5=80-100% damage) | 5 (5=80-100% damage) | 5 (5=80-100% damage) | 5 (5=80-100% damage) | 5 (5=80-100% damage) | 5 (5=80-100% damage) | 4 (4=60-79% damage) | 5 (5=80-100% damage)
4 | CC(C)c1cccc(-c2c(C(F)(F)F)ccn(-c3cnn(C)c(=O)c3O)c2=O)c1 [Compound 7.014] | 4 (4=60-79% damage) | 1 (1=0-19% damage) | 1 (1=0-19% damage) | 5 (5=80-100% damage) | 4 (4=60-79% damage) | 3 (3=40-59% damage) | 5 (5=80-100% damage) | 5 (5=80-100% damage) | 3 (3=40-59% damage) | 5 (5=80-100% damage) | 3 (3=40-59% damage) | 5 (5=80-100% damage)
5 | Cn1ncc(-c2ccc(C(F)(F)F)cc2S(C)(=O)=O)c(O)c1=O [Compound 1.028, 4-hydroxy-2-methyl-5-[2-methylsulfonyl-4-(trifluoromethyl)phenyl]pyridazin-3-one] | 5 (5=80-100% damage) | 5 (5=80-100% damage) | 5 (5=80-100% damage) | 5 (5=80-100% damage) | 5 (5=80-100% damage) | 5 (5=80-100% damage) | 5 (5=80-100% damage) | 5 (5=80-100% damage) | 5 (5=80-100% damage) | 5 (5=80-100% damage) | 5 (5=80-100% damage) | 5 (5=80-100% damage)
6 | CCCC[S+]([O-])c1ccccc1-c1cnn(C)c(=O)c1O (stereo not drawn) [Compound 1.047] | 1 (1=0-19% damage) | 1 (1=0-19% damage) | 1 (1=0-19% damage) | 1 (1=0-19% damage) | 1 (1=0-19% damage) | 1 (1=0-19% damage) | 3 (3=40-59% damage) | 1 (1=0-19% damage) | 1 (1=0-19% damage) | 4 (4=60-79% damage) | 3 (3=40-59% damage) | 1 (1=0-19% damage)
7 | CCn1ncc(-c2ccc(C(F)(F)F)nc2S(C)(=O)=O)c(O)c1=O [Compound 4.001] | 5 (5=80-100% damage) | 5 (5=80-100% damage) | 5 (5=80-100% damage) | 5 (5=80-100% damage) | 5 (5=80-100% damage) | 5 (5=80-100% damage) | 5 (5=80-100% damage) | 5 (5=80-100% damage) | 5 (5=80-100% damage) | 5 (5=80-100% damage) | 5 (5=80-100% damage) | 5 (5=80-100% damage)
8 | Cn1ncc(-c2ccc(S(C)(=O)=O)c(F)c2Cl)c(O)c1=O [Compound 1.021] | 1 (1=0-19% damage) | 1 (1=0-19% damage) | 2 (2=20-39% damage) | 5 (5=80-100% damage) | 1 (1=0-19% damage) | 5 (5=80-100% damage) | 5 (5=80-100% damage) | 5 (5=80-100% damage) | 2 (2=20-39% damage) | 5 (5=80-100% damage) | 5 (5=80-100% damage) | 1 (1=0-19% damage)
9 | Cn1nc(O)c(-c2ccc(C(F)(F)F)cc2S(C)(=O)=O)c(O)c1=O [Compound 2.056] | 5 (5=80-100% damage) | 5 (5=80-100% damage) | 3 (3=40-59% damage) | 5 (5=80-100% damage) | 5 (5=80-100% damage) | 5 (5=80-100% damage) | 5 (5=80-100% damage) | 5 (5=80-100% damage) | 4 (4=60-79% damage) | 5 (5=80-100% damage) | 5 (5=80-100% damage) | 5 (5=80-100% damage)
10 | CCCCS(=O)(=O)c1ccccc1-c1cnn(C)c(=O)c1O [Compound 1.051] | 2 (2=20-39% damage) | 1 (1=0-19% damage) | 1 (1=0-19% damage) | 2 (2=20-39% damage) | 1 (1=0-19% damage) | 4 (4=60-79% damage) | 5 (5=80-100% damage) | 5 (5=80-100% damage) | 2 (2=20-39% damage) | 5 (5=80-100% damage) | 4 (4=60-79% damage) | 1 (1=0-19% damage)
